The values below are quoted from earlier work in patent US5807535A, “Metal complexes of hydroxyaryl containing aminocarboxylic acid chelating agents” (Australian Nuclear Science & Technology Organisation, priority 1992, dated 1998).

The conditions of the data set: lymphoma diagnosis; cited from earlier work.

For the molecule `O=C([O-])CC(O)(CC(=O)[O-])C(=O)[O-].[Ga+3]` [Ga-67 citrate], the clearance result is “clears slowly from the blood, through the liver, accumulating in the bowel”; the “uptake at the disease sites” value is “relatively fast and selective uptake at the disease sites”.
